In article PMC4411097, “Pachymic Acid Inhibits Growth and Induces Apoptosis of Pancreatic Cancer In Vitro and In Vivo by Targeting ER Stress” (PLoS ONE, 2015):

Test system: MIA PaCa-2 cells
Assay: DNA microarray analysis (Affymetrix Human PrimeView);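 for Mean (MiaPaca-2 * PA): Log2-transformed RMA normalized probe set signal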
Type: cell-based
[1] = gene HNRNPM, probeset 11761514_at
[2] = gene IER5, probeset 11716629_at
[3] = gene IRAK2, probeset 11733240_at
[4] = gene LIF, probeset 11758619_s_at
[5] = gene LTB, probeset 11739657_a_at
[6] = gene MALAT1, probeset 11745723_a_at
[7] = gene MARS2, probeset 11729710_a_at
[8] = gene MARS2, probeset 11750890_a_at
[9] = gene MCL1, probeset 11715484_a_at
[10] = gene NAV3, probeset 11723147_a_at
[11] = gene NFKBIA, probeset 11745878_x_at
[12] = gene NFKBIA, probeset 11757894_x_at
[13] = gene PHLDA2, probeset 11744005_at
[14] = gene PLEKHG6, probeset 11733595_x_at
[15] = gene RPS4X, probeset 11761933_at
[16] = gene SAT1, probeset 11743036_s_at
[17] = gene SDC4, probeset 11717639_x_at
[18] = gene SDC4, probeset 11749921_a_at
[19] = gene SH3BP1, probeset 11728063_x_at
[20] = gene SLC3A2, probeset 11733071_a_at
[21] = gene SLC3A2, probeset 11741149_x_at
[22] = gene SLC3A2, probeset 11746697_a_at
[23] = gene SLC3A2, probeset 11753434_a_at
[24] = gene SLC16A6, probeset 11735090_s_at
[25] = gene SLC16A6, probeset 11754629_s_at
[26] = gene SMAGP, probeset 11719864_a_at

C=C(CC[C@@H](C(=O)O)[C@H]1[C@H](O)C[C@@]2(C)C3=C(CC[C@]12C)[C@@]1(C)CC[C@H](OC(C)=O)C(C)(C)[C@@H]1CC3)C(C)C [PA, Pachymic acid]
Fold-Change (MiaPaca-2 * PA vs. MiaPaca-2 * control) [1]: 1.65 | Mean (MiaPaca-2 * PA) [1]: 9.69 | Fold-Change (MiaPaca-2 * PA vs. MiaPaca-2 * control) (gene HNRNPM, probeset 11761516_x_at, MiaPaca-2): 1.50 | Mean (MiaPaca-2 * PA) (gene HNRNPM, probeset 11761516_x_at, MiaPaca-2, PA-treated): 10.58 | Fold-Change (MiaPaca-2 * PA vs. MiaPaca-2 * control) (gene HOOK1, probeset 11750347_a_at, MiaPaca-2): 1.50 | Mean (MiaPaca-2 * PA) (gene HOOK1, probeset 11750347_a_at, MiaPaca-2, PA-treated): 3.97 | Fold-Change (MiaPaca-2 * PA vs. MiaPaca-2 * control) [2]: 1.60 | Mean (MiaPaca-2 * PA) [2]: 7.72 | Fold-Change (MiaPaca-2 * PA vs. MiaPaca-2 * control) (gene IL12A, probeset 11756769_a_at, MiaPaca-2): 1.50 | Mean (MiaPaca-2 * PA) (gene IL12A, probeset 11756769_a_at, MiaPaca-2, PA-treated): 5.04 | Fold-Change (MiaPaca-2 * PA vs. MiaPaca-2 * control) [3]: 1.59 | Mean (MiaPaca-2 * PA) [3]: 6.52 | Fold-Change (MiaPaca-2 * PA vs. MiaPaca-2 * control) (gene KLHL29, probeset 11745365_at, MiaPaca-2): 1.51 | Mean (MiaPaca-2 * PA) (gene KLHL29, probeset 11745365_at, MiaPaca-2, PA-treated): 5.04 | Fold-Change (MiaPaca-2 * PA vs. MiaPaca-2 * control) (gene LIF, probeset 11726498_at): 1.55 | Mean (MiaPaca-2 * PA) (gene LIF, probeset 11726498_at): 7.20 | Fold-Change (MiaPaca-2 * PA vs. MiaPaca-2 * control) [4]: 1.55 | Mean (MiaPaca-2 * PA) [4]: 9.50 | Fold-Change (MiaPaca-2 * PA vs. MiaPaca-2 * control) (gene LRP8, probeset 11741376_a_at, MiaPaca-2): 1.53 | Mean (MiaPaca-2 * PA) (gene LRP8, probeset 11741376_a_at, MiaPaca-2, PA-treated): 7.95 | Fold-Change (MiaPaca-2 * PA vs. MiaPaca-2 * control) [5]: 1.54 | Mean (MiaPaca-2 * PA) [5]: 6.97 | Fold-Change (MiaPaca-2 * PA vs. MiaPaca-2 * control) (gene MAFF, probeset 11726611_x_at, MiaPaca-2): 1.50 | Mean (MiaPaca-2 * PA) (gene MAFF, probeset 11726611_x_at, MiaPaca-2, PA-treated): 6.99 | Fold-Change (MiaPaca-2 * PA vs. MiaPaca-2 * control) [6]: 1.55 | Mean (MiaPaca-2 * PA) [6]: 9.40 | Fold-Change (MiaPaca-2 * PA vs. MiaPaca-2 * control) [7]: 1.55 | Mean (MiaPaca-2 * PA) [7]: 6.32 | Fold-Change (MiaPaca-2 * PA vs. MiaPaca-2 * control) [8]: 1.61 | Mean (MiaPaca-2 * PA) [8]: 6.51 | Fold-Change (MiaPaca-2 * PA vs. MiaPaca-2 * control) [9]: 1.60 | Mean (MiaPaca-2 * PA) [9]: 8.79 | Fold-Change (MiaPaca-2 * PA vs. MiaPaca-2 * control) (gene MMP1, probeset 11741897_a_at, MiaPaca-2): 1.52 | Mean (MiaPaca-2 * PA) (gene MMP1, probeset 11741897_a_at, MiaPaca-2, PA-treated): 5.59 | Fold-Change (MiaPaca-2 * PA vs. MiaPaca-2 * control) [10]: 1.54 | Mean (MiaPaca-2 * PA) [10]: 5.19 | Fold-Change (MiaPaca-2 * PA vs. MiaPaca-2 * control) (gene NFKBIA, probeset 11744000_a_at): 1.65 | Fold-Change (MiaPaca-2 * PA vs. MiaPaca-2 * control) [11]: 1.67 | Mean (MiaPaca-2 * PA) [11]: 11.53 | Fold-Change (MiaPaca-2 * PA vs. MiaPaca-2 * control) [12]: 1.56 | Mean (MiaPaca-2 * PA) [12]: 11.80 | Fold-Change (MiaPaca-2 * PA vs. MiaPaca-2 * control) (gene PABPC1L, probeset 11721609_a_at, MiaPaca-2): 1.51 | Mean (MiaPaca-2 * PA) (gene PABPC1L, probeset 11721609_a_at, MiaPaca-2, PA-treated): 9.20 | Fold-Change (MiaPaca-2 * PA vs. MiaPaca-2 * control) [13]: 1.57 | Mean (MiaPaca-2 * PA) [13]: 8.15 | Fold-Change (MiaPaca-2 * PA vs. MiaPaca-2 * control) (gene PHLDB2, probeset 11737041_a_at, MiaPaca-2): 1.50 | Mean (MiaPaca-2 * PA) (gene PHLDB2, probeset 11737041_a_at, MiaPaca-2, PA-treated): 11.63 | Fold-Change (MiaPaca-2 * PA vs. MiaPaca-2 * control) [14]: 1.55 | Mean (MiaPaca-2 * PA) [14]: 5.78 | Fold-Change (MiaPaca-2 * PA vs. MiaPaca-2 * control) (gene PNP, probeset 11718400_a_at, MiaPaca-2): 1.50 | Mean (MiaPaca-2 * PA) (gene PNP, probeset 11718400_a_at, MiaPaca-2, PA-treated): 10.30 | Fold-Change (MiaPaca-2 * PA vs. MiaPaca-2 * control) (gene RBM3, probeset 11760141_s_at, MiaPaca-2): 1.52 | Mean (MiaPaca-2 * PA) (gene RBM3, probeset 11760141_s_at, MiaPaca-2, PA-treated): 5.58 | Fold-Change (MiaPaca-2 * PA vs. MiaPaca-2 * control) (gene RCAN1, probeset 11763514_x_at, MiaPaca-2): 1.51 | Mean (MiaPaca-2 * PA) (gene RCAN1, probeset 11763514_x_at, MiaPaca-2, PA-treated): 7.84 | Fold-Change (MiaPaca-2 * PA vs. MiaPaca-2 * control) (gene RPL37A, probeset 11759821_at, MiaPaca-2): 1.51 | Mean (MiaPaca-2 * PA) (gene RPL37A, probeset 11759821_at, MiaPaca-2, PA-treated): 7.62 | Fold-Change (MiaPaca-2 * PA vs. MiaPaca-2 * control) [15]: 1.59 | Mean (MiaPaca-2 * PA) [15]: 5.23 | Fold-Change (MiaPaca-2 * PA vs. MiaPaca-2 * control) [16]: 1.56 | Mean (MiaPaca-2 * PA) [16]: 10.67 | Fold-Change (MiaPaca-2 * PA vs. MiaPaca-2 * control) [17]: 1.61 | Mean (MiaPaca-2 * PA) [17]: 10.95 | Fold-Change (MiaPaca-2 * PA vs. MiaPaca-2 * control) [18]: 1.53 | Mean (MiaPaca-2 * PA) [18]: 8.87 | Fold-Change (MiaPaca-2 * PA vs. MiaPaca-2 * control) [19]: 1.54 | Mean (MiaPaca-2 * PA) [19]: 7.60 | Fold-Change (MiaPaca-2 * PA vs. MiaPaca-2 * control) [20]: 1.55 | Mean (MiaPaca-2 * PA) [20]: 8.64 | Fold-Change (MiaPaca-2 * PA vs. MiaPaca-2 * control) [21]: 1.56 | Mean (MiaPaca-2 * PA) [21]: 8.54 | Fold-Change (MiaPaca-2 * PA vs. MiaPaca-2 * control) [22]: 1.58 | Mean (MiaPaca-2 * PA) [22]: 8.64 | Fold-Change (MiaPaca-2 * PA vs. MiaPaca-2 * control) [23]: 1.53 | Mean (MiaPaca-2 * PA) [23]: 7.98 | Fold-Change (MiaPaca-2 * PA vs. MiaPaca-2 * control) (gene SLC3A2, probeset 11754529_x_at, MiaPaca-2): 1.52 | Mean (MiaPaca-2 * PA) (gene SLC3A2, probeset 11754529_x_at, MiaPaca-2, PA-treated): 9.50 | Fold-Change (MiaPaca-2 * PA vs. MiaPaca-2 * control) [24]: 1.58 | Mean (MiaPaca-2 * PA) [24]: 5.46 | Fold-Change (MiaPaca-2 * PA vs. MiaPaca-2 * control) [25]: 1.55 | Mean (MiaPaca-2 * PA) [25]: 6.21 | Fold-Change (MiaPaca-2 * PA vs. MiaPaca-2 * control) [26]: 1.55 | Mean (MiaPaca-2 * PA) [26]: 9.61 | Fold-Change (MiaPaca-2 * PA vs. MiaPaca-2 * control) (gene SMURF2, probeset 11748382_a_at, MiaPaca-2): 1.50 | Mean (MiaPaca-2 * PA) (gene SMURF2, probeset 11748382_a_at, MiaPaca-2, PA-treated): 8.51 | Fold-Change (MiaPaca-2 * PA vs. MiaPaca-2 * control) (gene SNHG12, probeset 11753858_a_at, MiaPaca-2): 1.50 | Mean (MiaPaca-2 * PA) (gene SNHG12, probeset 11753858_a_at, MiaPaca-2, PA-treated): 10.82 | Fold-Change (MiaPaca-2 * PA vs. MiaPaca-2 * control) (gene SPRY4, probeset 11736669_s_at, MiaPaca-2): 1.50
